Measured values as given in article PMC5218480 (PLoS ONE, 2017).

Tested on: MV-4-11 cells
Assay: Gene expression microarray analysis (Affymetrix PrimeView) and GSEA
Type: cell-based, human
Parameters: RFU PODN (11730768_x_at) / Fold change /veh PODN (11730768_x_at) / RFU LINC00158 (11744669_a_at) / Fold change /veh LINC00158 (11744669_a_at) / RFU DUSP10 (11751237_a_at) / Fold change /veh DUSP10 (11751237_a_at) / RFU ID3 (11757404_x_at) / Fold change /veh ID3 (11757404_x_at) / RFU PLEKHG5 (11737974_s_at) / Fold change /veh PLEKHG5 (11737974_s_at) / RFU LRRC4B (11730491_at) / Fold change /veh LRRC4B (11730491_at) / RFU GIMAP4 (11747438_a_at) / Fold change /veh GIMAP4 (11747438_a_at) / RFU KRT8 (11758183_x_at) / Fold change /veh KRT8 (11758183_x_at) / RFU CNN1 (11734310_a_at) / Fold change /veh CNN1 (11734310_a_at) / RFU VPS37D (11726825_at) / Fold change /veh VPS37D (11726825_at) / RFU C10orf10 (11716522_x_at) / Fold change /veh C10orf10 (11716522_x_at) / RFU KIR2DL2 /// KIR2DL4 /// KIR2DL5A /// KIR2DL5B /// KIR2DS1 /// KIR2DS2 /// KIR2DS3 /// KIR2DS4 /// KIR3DL3 /// KIR3DL3 /// KIR3DS1 (11738374_at) / Fold change /veh KIR2DL2 /// KIR2DL4 /// KIR2DL5A /// KIR2DL5B /// KIR2DS1 /// KIR2DS2 /// KIR2DS3 /// KIR2DS4 /// KIR3DL3 /// KIR3DL3 /// KIR3DS1 (11738374_at) / RFU C1QL1 (11718748_at) / Fold change /veh C1QL1 (11718748_at) / RFU TMPRSS4 (11747572_a_at) / Fold change /veh TMPRSS4 (11747572_a_at) / RFU HAMP (11756126_x_at) / Fold change /veh HAMP (11756126_x_at) / RFU RNFT2 (11725882_a_at) / Fold change /veh RNFT2 (11725882_a_at) / RFU NR4A2 (11747474_a_at) / Fold change /veh NR4A2 (11747474_a_at) / RFU ABCC12 (11746883_a_at) / Fold change /veh ABCC12 (11746883_a_at) / RFU TMEM136 (11760407_x_at) / Fold change /veh TMEM136 (11760407_x_at) / RFU CLDN22 /// WWC2 (11732394_at) / Fold change /veh CLDN22 /// WWC2 (11732394_at) / RFU HLA-DPB1 (11760878_x_at) / Fold change /veh HLA-DPB1 (11760878_x_at) / RFU SPINT1 (11716480_a_at) / Fold change /veh SPINT1 (11716480_a_at) / RFU GAP43 (11754022_s_at) / Fold change /veh GAP43 (11754022_s_at) / RFU A4GNT (11735810_at) / Fold change /veh A4GNT (11735810_at) / RFU PRB3 (11715151_x_at) / Fold change /veh PRB3 (11715151_x_at) / RFU TUBB4B (11761932_at) / Fold change /veh TUBB4B (11761932_at) / RFU CAPN14 (11732068_a_at) / Fold change /veh CAPN14 (11732068_a_at) / RFU TMCC2 (11721928_a_at) / Fold change /veh TMCC2 (11721928_a_at) / RFU IRGQ (11745062_a_at) / Fold change /veh IRGQ (11745062_a_at) / RFU FAM174B (11720279_a_at) / Fold change /veh FAM174B (11720279_a_at) / RFU TMPRSS4 (11748680_a_at) / Fold change /veh TMPRSS4 (11748680_a_at) / RFU FAM212B (11763350_a_at) / Fold change /veh FAM212B (11763350_a_at) / RFU PLEKHG5 (11743358_a_at) / Fold change /veh PLEKHG5 (11743358_a_at) / RFU ZSCAN30 (11745921_a_at) / Fold change /veh ZSCAN30 (11745921_a_at) / RFU CMKLR1 (11741424_a_at) / Fold change /veh CMKLR1 (11741424_a_at) / RFU LOC101060620 /// MAPK8IP1 (11723275_at) / Fold change /veh LOC101060620 /// MAPK8IP1 (11723275_at) / RFU SPTSSB (11747773_x_at) / Fold change /veh SPTSSB (11747773_x_at) / RFU PRSS12 (11739890_at) / Fold change /veh PRSS12 (11739890_at) / RFU BIN1 (11741810_x_at) / Fold change /veh BIN1 (11741810_x_at) / RFU WNT11 (11732464_a_at) / Fold change /veh WNT11 (11732464_a_at) / RFU C10orf10 (11716521_a_at) / Fold change /veh C10orf10 (11716521_a_at) / RFU C5orf56 (11738089_at) / Fold change /veh C5orf56 (11738089_at) / RFU CYB561 (11721691_x_at) / Fold change /veh CYB561 (11721691_x_at) / RFU ANKRD19P (11752326_a_at) / Fold change /veh ANKRD19P (11752326_a_at) / RFU OR2T12 /// OR2T33 /// OR2T8 (11738714_s_at) / Fold change /veh OR2T12 /// OR2T33 /// OR2T8 (11738714_s_at) / RFU VCAN (11748164_a_at) / Fold change /veh VCAN (11748164_a_at) / RFU JSRP1 (11732532_at) / Fold change /veh JSRP1 (11732532_at) / RFU KRTAP10-11 (11738290_x_at) / Fold change /veh KRTAP10-11 (11738290_x_at) / RFU MYO3A (11730013_a_at) / Fold change /veh MYO3A (11730013_a_at) / RFU EBF3 (11725865_a_at) / Fold change /veh EBF3 (11725865_a_at) / RFU CAMK2N1 (11719241_x_at) / Fold change /veh CAMK2N1 (11719241_x_at) / RFU C5orf56 (11738088_a_at) / Fold change /veh C5orf56 (11738088_a_at) / RFU OLFML3 (11715873_a_at) / Fold change /veh OLFML3 (11715873_a_at) / RFU LOC100653217 /// NTM (11731650_a_at) / Fold change /veh LOC100653217 /// NTM (11731650_a_at) / RFU MAPK11 (11762145_a_at) / Fold change /veh MAPK11 (11762145_a_at) / RFU FIZ1 (11724087_x_at) / Fold change /veh FIZ1 (11724087_x_at) / RFU OASL (11726364_x_at) / Fold change /veh OASL (11726364_x_at) / RFU SOX15 (11748057_x_at) / Fold change /veh SOX15 (11748057_x_at) / RFU CD79A (11719716_a_at) / Fold change /veh CD79A (11719716_a_at) / RFU HIST1H1D (11736915_at) / Fold change /veh HIST1H1D (11736915_at) / RFU CASKIN2 (11723855_a_at) / Fold change /veh CASKIN2 (11723855_a_at) / RFU LOC730098 (11760151_x_at) / Fold change /veh LOC730098 (11760151_x_at) / RFU OR4N2 (11742367_at) / Fold change /veh OR4N2 (11742367_at) / RFU PRRT2 (11749266_a_at) / Fold change /veh PRRT2 (11749266_a_at) / RFU SNX32 (11753110_a_at) / Fold change /veh SNX32 (11753110_a_at) / RFU CDHR5 (11726645_a_at) / Fold change /veh CDHR5 (11726645_a_at) / RFU RCAN1 (11760418_a_at) / Fold change /veh RCAN1 (11760418_a_at) / RFU FAM167A (11723789_a_at) / Fold change /veh FAM167A (11723789_a_at) / RFU FAM26E (11764081_at) / Fold change /veh FAM26E (11764081_at) / RFU ISYNA1 (11749810_s_at) / Fold change /veh ISYNA1 (11749810_s_at) / RFU ACY1 (11761880_at) / Fold change /veh ACY1 (11761880_at) / RFU 11764098_at / Fold change /veh 11764098_at / RFU SAMD14 (11745864_x_at) / Fold change /veh SAMD14 (11745864_x_at) / RFU NPB (11741838_a_at) / Fold change /veh NPB (11741838_a_at) / RFU TMPRSS6 (11731388_a_at) / Fold change /veh TMPRSS6 (11731388_a_at) / RFU KRTAP10-2 (11738614_at) / Fold change /veh KRTAP10-2 (11738614_at) / RFU ARHGAP8 /// PRR5-ARHGAP8 (11727945_x_at) / Fold change /veh ARHGAP8 /// PRR5-ARHGAP8 (11727945_x_at) / RFU KRTAP5-7 /// NADSYN1 (11734609_at) / Fold change /veh KRTAP5-7 /// NADSYN1 (11734609_at) / RFU RASL12 (11751679_a_at) / Fold change /veh RASL12 (11751679_a_at) / RFU CDKN2B (11736163_a_at) / Fold change /veh CDKN2B (11736163_a_at) / RFU PRF1 (11729649_at) / Fold change /veh PRF1 (11729649_at) / RFU, ZNF638 /// ZNF638-IT1 / Fold change vs veh, ZNF638 /// ZNF638-IT1 / RFU, PANK3 / Fold change vs veh, PANK3 / RFU, SH3YL1 / Fold change vs veh, SH3YL1 / RFU, ZEB2 / Fold change vs veh, ZEB2 / RFU, NRIP1 / Fold change vs veh, NRIP1 / RFU, PTTG1IP / Fold change vs veh, PTTG1IP / RFU, CAPN2 / Fold change vs veh, CAPN2 / RFU, MED14 / Fold change vs veh, MED14 / RFU, SNORA58 / Fold change vs veh, SNORA58 / RFU, C1orf63 / Fold change vs veh, C1orf63 / RFU, LRRFIP1 / Fold change vs veh, LRRFIP1 / RFU, NDUFAF7 / Fold change vs veh, NDUFAF7 / RFU, SLC12A2 / Fold change vs veh, SLC12A2 / RFU, IBTK / Fold change vs veh, IBTK / RFU, ESF1 / Fold change vs veh, ESF1 / Fold change vs veh, TMEM50B / RFU, TAOK1 / Fold change vs veh, TAOK1 / RFU, ACBD3 / Fold change vs veh, ACBD3 / RFU, TMA16 / Fold change vs veh, TMA16 / RFU, RWDD3 / Fold change vs veh, RWDD3 / RFU, BCAT1 / Fold change vs veh, BCAT1 / RFU, EDEM3 / Fold change vs veh, EDEM3 / RFU, TMEM33 / Fold change vs veh, TMEM33 / RFU, WDR75 / Fold change vs veh, WDR75 / RFU, AHCTF1 / Fold change vs veh, AHCTF1 / RFU, TFRC / Fold change vs veh, TFRC / RFU, ZDHHC17 / Fold change vs veh, ZDHHC17 / RFU, NOM1 / Fold change vs veh, NOM1 / RFU, ARL8B / Fold change vs veh, ARL8B / RFU, ZBTB11 / Fold change vs veh, ZBTB11 / RFU, TAMM41 / Fold change vs veh, TAMM41 / RFU, KIAA1704 /// LOC100996395 / Fold change vs veh, KIAA1704 /// LOC100996395 / RFU, ING1 / Fold change vs veh, ING1 / RFU, TRMT61B / Fold change vs veh, TRMT61B / RFU, FUBP3 / Fold change vs veh, FUBP3 / RFU, TP53 / Fold change vs veh, TP53 / RFU, TNKS2 / Fold change vs veh, TNKS2 / RFU, ZFP14 / Fold change vs veh, ZFP14 / RFU, ACTR2 / Fold change vs veh, ACTR2 / RFU, PPP3R1 / Fold change vs veh, PPP3R1 / RFU, PIK3R1 / Fold change vs veh, PIK3R1 / RFU, HNRNPA1 / Fold change vs veh, HNRNPA1 / RFU, RNF170 / Fold change vs veh, RNF170 / RFU, ZNF28 / Fold change vs veh, ZNF28 / RFU, RNGTT / Fold change vs veh, RNGTT / RFU, OGT / Fold change vs veh, OGT / RFU, BRD1 / Fold change vs veh, BRD1 / RFU, MARS / Fold change vs veh, MARS / RFU, ZNF655 / Fold change vs veh, ZNF655 / RFU, FAHD1 / Fold change vs veh, FAHD1 / RFU, BDP1 / Fold change vs veh, BDP1 / RFU, LRRCC1 / Fold change vs veh, LRRCC1 / RFU, ARID1A / Fold change vs veh, ARID1A / RFU, ZNF146 / Fold change vs veh, ZNF146 / RFU, ZNF330 / Fold change vs veh, ZNF330 / RFU, GPN3 / Fold change vs veh, GPN3 / RFU, C9orf123 / Fold change vs veh, C9orf123 / RFU, N4BP2L2 / Fold change vs veh, N4BP2L2 / RFU, ARFIP1 / Fold change vs veh, ARFIP1 / RFU, FAM179B / Fold change vs veh, FAM179B / RFU, BCL10 / Fold change vs veh, BCL10 / RFU, UHRF1BP1L / Fold change vs veh, UHRF1BP1L / RFU, BET1 / Fold change vs veh, BET1 / RFU, CNOT2 / Fold change vs veh, CNOT2 / RFU, ZNF268 / Fold change vs veh, ZNF268 / Fold change vs veh, ZNF507 / RFU, DGCR2 / Fold change vs veh, DGCR2 / RFU, WDSUB1 / Fold change vs veh, WDSUB1 / Fold change vs veh, HSP90B1 /// MIR3652 / RFU, ADSS / Fold change vs veh, ADSS / RFU, GK / Fold change vs veh, GK / RFU, ZNF148 / Fold change vs veh, ZNF148 / RFU, TAF9 / Fold change vs veh, TAF9 / RFU, SLC1A5 / Fold change vs veh, SLC1A5 / RFU, SLMO2 / Fold change vs veh, SLMO2 / RFU, ABCC4 / Fold change vs veh, ABCC4 / RFU, LOC101060439 /// RAP1B / Fold change vs veh, LOC101060439 /// RAP1B / RFU, RFX7 / Fold change vs veh, RFX7 / RFU, GTPBP10 / Fold change vs veh, GTPBP10 / RFU, CNEP1R1 / Fold change vs veh, CNEP1R1 / RFU, BIVM-ERCC5 /// ERCC5 / Fold change vs veh, BIVM-ERCC5 /// ERCC5 / RFU, ILF3 / Fold change vs veh, ILF3 / RFU 11762660_at / Fold change /veh 11762660_at / RFU VCAN (11757783_s_at) / Fold change /veh VCAN (11757783_s_at) / RFU DDX43 (11728927_at) / Fold change /veh DDX43 (11728927_at) / RFU KRT8 (11758188_x_at) / Fold change /veh KRT8 (11758188_x_at) / RFU NKD1 (11759106_at) / Fold change /veh NKD1 (11759106_at) / RFU SRD5A1 (11742802_a_at) / Fold change /veh SRD5A1 (11742802_a_at) / RFU TPSAB1 /// TPSB2 (11721975_s_at) / Fold change /veh TPSAB1 /// TPSB2 (11721975_s_at) / RFU GSTM3 (11746129_a_at) / Fold change /veh GSTM3 (11746129_a_at) / RFU IL23R (11737362_x_at) / Fold change /veh IL23R (11737362_x_at) / RFU TMEM51 (11727254_a_at) / Fold change /veh TMEM51 (11727254_a_at) / RFU PIWIL2 (11732686_x_at) / Fold change /veh PIWIL2 (11732686_x_at) / RFU ORM1 (11744905_x_at) / Fold change /veh ORM1 (11744905_x_at) / RFU CCDC152 (11743942_at) / Fold change /veh CCDC152 (11743942_at) / RFU ECM1 (11717891_a_at) / Fold change /veh ECM1 (11717891_a_at) / RFU IL23R (11748794_a_at) / Fold change /veh IL23R (11748794_a_at) / RFU TNFAIP8L3 (11732012_x_at) / Fold change /veh TNFAIP8L3 (11732012_x_at) / RFU MBOAT4 (11741988_at) / Fold change /veh MBOAT4 (11741988_at) / RFU 11764193_at / Fold change /veh 11764193_at / RFU TMEM53 (11763286_at) / Fold change /veh TMEM53 (11763286_at) / RFU MAGEB2 (11727129_at) / Fold change /veh MAGEB2 (11727129_at) / RFU TMEM200A (11744735_a_at) / Fold change /veh TMEM200A (11744735_a_at) / RFU CCDC152 (11751479_a_at) / Fold change /veh CCDC152 (11751479_a_at) / RFU FAM211A (11726209_a_at) / Fold change /veh FAM211A (11726209_a_at) / RFU RGS16 (11746705_a_at) / Fold change /veh RGS16 (11746705_a_at) / RFU VCAN (11755009_s_at) / Fold change /veh VCAN (11755009_s_at) / RFU RHOB (11743442_s_at) / Fold change /veh RHOB (11743442_s_at) / RFU RGS16 (11720943_a_at) / Fold change /veh RGS16 (11720943_a_at) / RFU RGS16 (11720944_at) / Fold change /veh RGS16 (11720944_at) / RFU, VPS4B / Fold change vs veh, VPS4B / RFU, CREB1 / Fold change vs veh, CREB1 / RFU, DNAJC13 / Fold change vs veh, DNAJC13 / RFU, GNAQ / Fold change vs veh, GNAQ / RFU, CDK5R1 / Fold change vs veh, CDK5R1 / RFU, ZRANB3 / Fold change vs veh, ZRANB3 / RFU, CUL4A / Fold change vs veh, CUL4A / RFU, CCNY / Fold change vs veh, CCNY / RFU, UFL1 / Fold change vs veh, UFL1 / RFU, COG3 / Fold change vs veh, COG3 / RFU, DIAPH2 / Fold change vs veh, DIAPH2 / RFU, SKA2 / Fold change vs veh, SKA2 / RFU, AFF3 / Fold change vs veh, AFF3 / RFU, LMF1 / Fold change vs veh, LMF1 / RFU, IPO11 / Fold change vs veh, IPO11 / RFU, DFFB / Fold change vs veh, DFFB / RFU, FOXP1 / Fold change vs veh, FOXP1 / RFU, CARD8 / Fold change vs veh, CARD8 / RFU, STRN3 / Fold change vs veh, STRN3 / RFU, ADK / Fold change vs veh, ADK / RFU, RASSF2 / Fold change vs veh, RASSF2 / RFU, WIPF1 / Fold change vs veh, WIPF1 / RFU, LARP1B / Fold change vs veh, LARP1B / RFU, RASA1 / Fold change vs veh, RASA1 / RFU, RB1 / Fold change vs veh, RB1 / RFU, PPFIA1 / Fold change vs veh, PPFIA1 / RFU, MAT2A / Fold change vs veh, MAT2A / RFU, CCT5 / Fold change vs veh, CCT5 / RFU, WDR92 / Fold change vs veh, WDR92 / RFU, CUX1 / Fold change vs veh, CUX1 / RFU, TTC7A / Fold change vs veh, TTC7A / RFU, TMEM135 / Fold change vs veh, TMEM135 / RFU, DEPTOR / Fold change vs veh, DEPTOR / RFU, CPM / Fold change vs veh, CPM / RFU, DNAJB6 / Fold change vs veh, DNAJB6 / RFU, CACNA2D3 / Fold change vs veh, CACNA2D3 / RFU, DTX4 / Fold change vs veh, DTX4 / RFU, TFCP2 / Fold change vs veh, TFCP2 / RFU, GMCL1 /// GMCL1P1 / Fold change vs veh, GMCL1 /// GMCL1P1 / RFU, AEBP2 / Fold change vs veh, AEBP2 / RFU, SNHG1 /// SNORD22 /// SNORD25 /// SNORD26 /// SNORD27 /// SNORD28 /// SNORD29 /// SNORD31 / Fold change vs veh, SNHG1 /// SNORD22 /// SNORD25 /// SNORD26 /// SNORD27 /// SNORD28 /// SNORD29 /// SNORD31 / Fold change (Aza/veh), C12orf56 (ProbeSet 11735607_a_at) / Fold change (ACY-1035/veh), C12orf56 (ProbeSet 11735607_a_at) / Fold change (Aza/veh), FGFR1OP (ProbeSet 11751329_s_at) / Fold change (ACY-1035/veh), FGFR1OP (ProbeSet 11751329_s_at) / Fold change (Aza/veh), VPS36 (ProbeSet 11739960_a_at) / Fold change (ACY-1035/veh), VPS36 (ProbeSet 11739960_a_at) / RFU SYPL1 (11715823_x_at) / Fold change /veh SYPL1 (11715823_x_at) / RFU IGFBP7 (11715501_s_at) / Fold change /veh IGFBP7 (11715501_s_at) / RFU REEP3 (11722064_at) / Fold change /veh REEP3 (11722064_at) / RFU IGLL1 (11728026_x_at) / Fold change /veh IGLL1 (11728026_x_at): dose or concentration left out as unconfirmed
Conditions: MV-4-11 cells, 48 hours

For `Nc1ncn([C@@H]2O[C@H](CO)[C@@H](O)[C@H]2O)c(=O)n1` [azacitidine], the “Fold change /veh ACY1 (11761880_at)” value was 1.09.
